In brackets after ≈: the same amount, converted by molar mass.
Legend:
[1] = Solubility of DS in presence of hydrophilic polymers (CMC-Na) and cyclodextrins; assay type: physicochemical
Experimental: (§1) 2 ml Eppendorf tubes can be filled with about 1.8 ml aqueous solution with a selected pH value. The volume used for the screening is 1.8 ml. The molar amount of cyclodextrin (CD) in the given volume is calculated for the given CD concentration. For a given molar ratio of active ingredient DS/CD the amount of active ingredient (DS) is calculated. Normally, a molar ratio of DS/CD=1/1 is targeted: 1 mol DS and 1 mol CD. As precise as possible, the calculated amount of DS is weighted into the tube exactly. The actual amount is reported.
(§2) According to the actual amount of DS the necessary volume of CD solution is calculated. As precise as possible, the requested volume of CD solution is pipetted into the tube. The actual volume pipetted is reported. The solution in the tube is placed on an Eppendorf Vario shaker. The solution is intensively shaken by means of ultrasound (Hielscher Ultrasound Processor) for 10 seconds at the maximum. It is payed attention to heat generation and overheating has to be avoided.
(§3) The tube is shaken for 1 hour in the Eppendorf Thermomixer at the given temperature and at 800 rpm. Subsequently, the pH value is checked and the given pH value adjusted accordingly, if necessary. The tube is shaken for 24 hours in the Eppendorf Thermomixer at the given temperature and at 800 rpm.
Eppendorf tubes are centrifuged for about 15 minutes at the given temperature, but at 40° C. at the maximum (max. temperature of the centrifuge), and 14,000 rpm. In case no clear supernatant is obtained centrifugation is repeated with adjusted rpm (revolutions per minute) and time. In case the supernatant is not clear and a filtration step is necessary the content of the tube is sucked or poured into 2 ml single use syringe. The supernatant is filtered through a 0.2 μm filter (Pall GHP Acrodisc 13 mm Syringe Filter 0.2 μm pore size). About 2-3 drops of the solution are discarded. The rest of the volume is collected in a second tube. If temperatures above room temperature (about 22° C.) are given, filters and tubes have to be tempered at that temperature prior to use.
(§4) The clear supernatant or filtrate is used for the analysis of the concentration. The pH value of the clear solution is analysed. The DS concentration of the clear solution is measured by UV/VIS spectroscopy (e.g., Hewlett-Packard 8453 UV/Visible Spectrophotometer).
DS, especially Dabigatranetexilat methanesulphonate, is tested for its solubility in dependency of the presence of various hydrophilic polymers and various cyclodextrins whereby the hydrophilic polymer is added to the aqueous solution before adding the DS.

[2] = Solubility of the active ingredient (DS) in cyclodextrin solutions at various pH values (UV/VIS); assay type: physicochemical
Experimental: Dabigatranetexilat methanesulphonate is tested for its solubility in dependency of the presence of various cyclodextrins at various ph values as follows:
as §1, §2, §3
Eppendorf tubes are centrifuged for about 15 minutes at the given temperature, but at 40° C. at the maximum (max. temperature of the centrifuge), and 14,000 rpm. In case no clear supernatant is obtained centrifugation is repeated with adjusted rpm (revolutions per minute) and time. […]
as §4

- increase of the solubility of the DS and of the drug load DS/CD ([1]; addition of 0.05% to 0.5% of CMC-Na, α-CD 10% (w/v)): up to 11%
- complexation efficiency of the CD ([1]; addition of a hydrophilic polymer before adding the DS): significantly improved
- solubility at 24 h ([1]; aqueous α-cyclodextrin solution with CMC-Na, aqueous with cosolvent or surfactant or cyclodextrin, thermodynamic from solid, 14% α-CD solution at pH 3 with 0.25% CMC-Na): ~67.3 mg/mL
- effect of cyclodextrins on solubility of the active ingredient ([2]; all cyclodextrins tested, various pH values): significantly improve the solubility
- solubility at 24 h ([2]; aqueous α-cyclodextrin solution, aqueous with cosolvent or surfactant or cyclodextrin, thermodynamic from solid, 10% (w/v) α-CD solution at pH 3): ~43 mg/mL (≈ 68.5 mM)
SMILES: CCCCCCOC(=O)NC(=N)c1ccc(NCc2nc3cc(C(=O)N(CCC(=O)OCC)c4ccccn4)ccc3n2C)cc1 [DS, dabigatran etexilate]
- g α-CD to complex 1 g API ([1]; α-CD, CMC-Na added): ≈ 2.1 g
- mol α-CD necessary to complex 1 mol API ([1]; α-CD, CMC-Na added): About 1.6 mol
- mol α-CD necessary to complex 1 mol API ([2]; α-CD 10% (w/v)): About 1.7 mol

Source: US20140343105A1, “NOVEL ORALLY ADMINISTERED DABIGATRAN FORMULATION” (BOEHRINGER INGELHEIM INTERNATIONAL GMBH, priority 2012, published 2014)
